In ChEMBL document CHEMBL4622904, “The discovery of azetidine-piperazine di-amides as potent, selective and reversible monoacylglycerol lipase (MAGL) inhibitors” (Bioorg Med Chem Lett, 2020):

What was measured:
[1] = molecular target: Plasma kallikrein (Homo sapiens) (UniProt P03952); experiment: Inhibition of kallikrein (unknown origin) at 10 uM relative to control
[2] = molecular target: Prothrombin (Homo sapiens) (UniProt P00734); experiment: Inhibition of thrombin (unknown origin) at 10 uM relative to control
[3] = molecular target: T1, Chymase (Homo sapiens) (UniProt P23946); experiment: Inhibition of chymase (unknown origin) at 10 uM relative to control
T1 sequence (whole entry): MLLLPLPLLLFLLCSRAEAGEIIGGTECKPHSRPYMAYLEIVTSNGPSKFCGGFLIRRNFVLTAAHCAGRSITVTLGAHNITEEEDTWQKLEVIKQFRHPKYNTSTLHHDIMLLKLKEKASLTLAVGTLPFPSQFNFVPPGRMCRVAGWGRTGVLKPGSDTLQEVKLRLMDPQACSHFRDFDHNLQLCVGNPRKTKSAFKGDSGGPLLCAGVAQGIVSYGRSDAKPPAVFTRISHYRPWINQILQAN

[4] = molecular target: T2, Cathepsin G (Homo sapiens) (UniProt P08311); experiment: Inhibition of cathepsin G (unknown origin) at 10 uM relative to control
T2 sequence (whole entry): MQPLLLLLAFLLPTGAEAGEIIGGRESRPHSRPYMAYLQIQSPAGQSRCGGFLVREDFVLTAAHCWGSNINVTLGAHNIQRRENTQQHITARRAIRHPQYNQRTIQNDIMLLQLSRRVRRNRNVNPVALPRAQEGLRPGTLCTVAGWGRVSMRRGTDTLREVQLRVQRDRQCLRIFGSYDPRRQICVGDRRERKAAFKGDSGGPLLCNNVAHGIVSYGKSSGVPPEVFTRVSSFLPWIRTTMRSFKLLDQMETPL

[5] = molecular target: T3, Myeloblastin (Homo sapiens) (UniProt P24158); experiment: Inhibition of proteinase 3 (unknown origin) at 10 uM relative to control
T3 sequence (whole entry): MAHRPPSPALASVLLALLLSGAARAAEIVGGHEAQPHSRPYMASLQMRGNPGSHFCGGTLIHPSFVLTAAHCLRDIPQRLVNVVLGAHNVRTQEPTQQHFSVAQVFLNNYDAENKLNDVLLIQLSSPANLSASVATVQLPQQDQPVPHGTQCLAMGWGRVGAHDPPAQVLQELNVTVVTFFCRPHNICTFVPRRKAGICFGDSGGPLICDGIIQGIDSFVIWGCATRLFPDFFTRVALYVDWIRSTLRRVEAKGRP

[6] = molecular target: T4, Coagulation factor VII (Homo sapiens) (UniProt P08709); experiment: Inhibition of factor 7a (unknown origin) at 10 uM relative to control
T4 sequence (whole entry): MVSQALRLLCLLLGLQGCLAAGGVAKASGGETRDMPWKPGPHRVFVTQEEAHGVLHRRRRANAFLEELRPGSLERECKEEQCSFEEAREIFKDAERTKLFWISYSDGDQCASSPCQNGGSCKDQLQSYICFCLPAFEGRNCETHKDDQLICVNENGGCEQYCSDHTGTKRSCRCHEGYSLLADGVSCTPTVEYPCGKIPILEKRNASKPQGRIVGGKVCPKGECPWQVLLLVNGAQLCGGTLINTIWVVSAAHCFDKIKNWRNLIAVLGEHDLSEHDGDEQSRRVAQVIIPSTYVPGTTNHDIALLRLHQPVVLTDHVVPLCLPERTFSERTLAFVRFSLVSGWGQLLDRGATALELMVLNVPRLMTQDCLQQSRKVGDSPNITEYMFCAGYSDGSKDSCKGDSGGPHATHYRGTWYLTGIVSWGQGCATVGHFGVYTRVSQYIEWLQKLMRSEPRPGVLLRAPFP

[7] = molecular target: Urokinase-type plasminogen activator (Homo sapiens) (UniProt P00749); experiment: Inhibition of urokinase (unknown origin) at 10 uM relative to control
[8] = tested on: Bacteria; experiment: Inhibition of bacterial streptokinase at 10 uM relative to control
[9] = molecular target: Trypsin (Homo sapiens) (UniProt P07477+P07478+P35030); experiment: Inhibition of trypsin (unknown origin) at 10 uM relative to control; format: protein assay
[10] = molecular target: Coagulation factor X (Homo sapiens) (UniProt P00742); experiment: Inhibition of factor 10a (unknown origin) at 10 uM relative to control
[11] = AUClast in rat at 10 mg/kg, po; format: ADME, organism-based; design: dose 10 mg/kg, route oral, time 0 - last; details: in vivo
[12] = Half life in rat at 10 mg/kg, po; format: ADME, organism-based; details: in vivo
[13] = Clearance in rat at 10 mg/kg, po; format: ADME, organism-based; details: in vivo
[14] = Volume of distribution at steady state in rat at 10 mg/kg, po; format: ADME, organism-based; details: in vivo
[15] = Oral bioavailability in dog at 10 mg/kg; format: ADME, organism-based, Canis lupus familiaris; details: in vivo
[16] = Tmax in dog at 10 mg/kg, po; format: ADME, organism-based, Canis lupus familiaris; details: in vivo
[17] = Cmax in dog at 10 mg/kg, po; format: ADME, organism-based, Canis lupus familiaris; design: dose 10 mg/kg, route oral; details: in vivo
[18] = AUClast in dog at 10 mg/kg, po; format: ADME, organism-based, Canis lupus familiaris; design: dose 10 mg/kg, route oral, time 0 - last; details: in vivo
[19] = Half life in dog at 10 mg/kg, po; format: ADME, organism-based, Canis lupus familiaris; details: in vivo
[20] = Clearance in dog at 10 mg/kg, po; format: ADME, organism-based, Canis lupus familiaris; details: in vivo
[21] = Volume of distribution at steady state in dog at 10 mg/kg, po; format: ADME, organism-based, Canis lupus familiaris; details: in vivo
[22] = Oral bioavailability in monkey at 10 mg/kg; format: ADME, organism-based, Macaca mulatta; details: rhesus monkey, in vivo
[23] = Tmax in monkey at 10 mg/kg, po; format: ADME, organism-based, Macaca mulatta; details: rhesus monkey, in vivo
[24] = Cmax in monkey at 10 mg/kg, po; format: ADME, organism-based, Macaca mulatta; design: dose 10 mg/kg, route oral; details: rhesus monkey, in vivo
[25] = AUClast in monkey at 10 mg/kg, po; format: ADME, organism-based, Macaca mulatta; design: dose 10 mg/kg, time 0 - last, route oral; details: rhesus monkey, in vivo
[26] = Half life in monkey at 10 mg/kg, po; format: ADME, organism-based, Macaca mulatta; details: rhesus monkey, in vivo
[27] = Clearance in monkey at 10 mg/kg, po; format: ADME, organism-based, Macaca mulatta; details: rhesus monkey, in vivo
[28] = Volume of distribution at steady state in monkey at 10 mg/kg, po; format: ADME, organism-based, Macaca mulatta; details: rhesus monkey, in vivo

Sequence of Coagulation factor X (Homo sapiens) (P00742 41-179 limits assumed): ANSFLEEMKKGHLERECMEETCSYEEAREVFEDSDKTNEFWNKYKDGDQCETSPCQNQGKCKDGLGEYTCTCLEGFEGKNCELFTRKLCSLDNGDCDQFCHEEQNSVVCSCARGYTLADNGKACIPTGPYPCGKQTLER
Sequence of Coagulation factor X (Homo sapiens) (P00742 235-488 limits assumed): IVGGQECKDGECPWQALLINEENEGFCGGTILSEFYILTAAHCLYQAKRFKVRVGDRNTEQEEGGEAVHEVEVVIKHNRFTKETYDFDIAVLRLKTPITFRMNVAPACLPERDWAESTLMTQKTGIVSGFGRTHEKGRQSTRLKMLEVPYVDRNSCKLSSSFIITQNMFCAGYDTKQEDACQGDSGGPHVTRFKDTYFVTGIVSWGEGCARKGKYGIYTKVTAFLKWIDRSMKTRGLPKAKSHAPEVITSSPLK
Sequence of Plasma kallikrein (Homo sapiens) (P03952 20-390 limits assumed): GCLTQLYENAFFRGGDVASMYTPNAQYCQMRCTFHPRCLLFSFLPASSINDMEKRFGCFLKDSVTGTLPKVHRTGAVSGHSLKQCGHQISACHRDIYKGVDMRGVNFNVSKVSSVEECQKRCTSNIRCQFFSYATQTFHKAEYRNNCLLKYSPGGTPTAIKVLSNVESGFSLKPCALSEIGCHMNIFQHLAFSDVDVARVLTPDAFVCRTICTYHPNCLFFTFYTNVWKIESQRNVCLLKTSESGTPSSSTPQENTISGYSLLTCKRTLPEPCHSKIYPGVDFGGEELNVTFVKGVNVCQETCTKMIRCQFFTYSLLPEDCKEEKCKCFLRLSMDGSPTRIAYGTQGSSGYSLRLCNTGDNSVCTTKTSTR
Sequence of Plasma kallikrein (Homo sapiens) (P03952 391-638 limits assumed): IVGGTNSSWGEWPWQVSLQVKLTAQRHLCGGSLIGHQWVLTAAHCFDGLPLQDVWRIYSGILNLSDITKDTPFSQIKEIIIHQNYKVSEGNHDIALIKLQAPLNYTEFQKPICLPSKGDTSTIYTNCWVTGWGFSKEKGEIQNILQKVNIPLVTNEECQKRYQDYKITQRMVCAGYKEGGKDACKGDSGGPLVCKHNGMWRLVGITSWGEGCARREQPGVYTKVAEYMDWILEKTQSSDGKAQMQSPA

Compound: O=C(c1ccc2c(ccn2-c2ccc(F)cc2)c1)N1CC(N2CCN(C(=O)c3nccs3)CC2)C1
- inhibition [1]: 4%
- inhibition [2]: -1%
- inhibition [3]: 11%
- inhibition [4]: 13%
- inhibition [5]: 7%
- inhibition [6]: -5%
- inhibition [7]: 2%
- inhibition [8]: 1%
- inhibition [9]: -10%
- inhibition [10]: 0%
- AUC(0-t) [11]: 3730 ng·h/mL
- half-life [12]: 6.82 h
- CL/F [13]: 19.2 mL/min/kg
- Vdss [14]: 1.22 L/kg
- bioavailability [15]: 79%
- Tmax [16]: 2 h
- Cmax [17]: 2860 ng/mL
- AUC(0-t) [18]: 33600 ng·h/mL
- half-life [19]: 7.46 h
- CL/F [20]: 4.35 mL/min/kg
- Vdss [21]: 0.56 L/kg
- bioavailability [22]: 82%
- Tmax [23]: 2.67 h
- Cmax [24]: 5300 ng/mL
- AUC(0-t) [25]: 33500 ng·h/mL
- half-life [26]: 4.62 h
- CL/F [27]: 4.46 mL/min/kg
- Vdss [28]: 0.429 L/kg
